Test [1] addresses T1, TDO in A172 cells (Homo sapiens, UniProt P48775).
T1 construct: endogenous in cells; host or cells: A172 cells
Description: TDO cell-based assay, kynurenine production in A172 cells. Particulars: A 172; final concentration of the compound 10 μM; rate relative to culture without compound. The procedure: A172 cells (3.0×10^5 cells/mL) suspended in a culture medium for assay (PRMI-1640; Wako 186-02155, 5% FBS, 50 units/mL penicillin, and 50 μg/mL streptomycin) were inoculated at 100 μL/well to a transparent 96-well flat-bottomed plate and cultured at 37° C. for 24 hours in 5% CO2. The culture medium was removed from the cells thus cultured. A culture medium for assay was added at 80 μL/well, and further, a compound solution was added at 10 μL/well. The cells were preincubated for 1 hour. Then, the whole amount was brought to 100 μL/well by the addition of 10 μL/well of a 5 mM aqueous tryptophan solution (final concentration of L-tryptophan: 524 μM), and the cells were cultured for 24 hours. After the culture, absorbance was measured at 460 nm using SpectraMax MSSK (Molecular Devices, LLC) (background measurement). After the measurement, a kynurenine quantification reagent (prepared with 7% [v/v] aqueous trichloroacetic acid solution and a solution of 2% [w/v] p-dimethylbenzaldehyde in acetic acid at 2:5 [v/v]) was added at 200 μL/well and reacted for 5 minutes, followed by the measurement of absorbance at 460 nm again. The rate of kynurenine production was calculated according to the following expression. Rate of kynurenine production (%) for each compound in the case of using A172 cells={(Absorbance at 460 nm in the tryptophan-containing culture medium comprising the A172 cells and the solution of the compound of the present invention−Absorbance of the background)/(Absorbance at 460 nm in the tryptophan-containing culture medium without the addition of the compound solution−Absorbance of the background)}×100

Test [2] addresses rhIDO (recombinant human IDO) (Homo sapiens, UniProt P14902). Description: Enzyme assay using rhIDO (rate of kynurenine production). It is filed as biochemical. To be noted: 2 h; final concentration of the compound 10 μM; rate relative to reaction without compound; read-out: rhIDO-mediated kynurenine production. Here is the method: Enzyme Assay Protocol Using rhIDO (Recombinant Human IDO)
4 μL of a compound solution was added to 176 μL of a rhIDO reaction solution (0.5 M potassium phosphate buffer (20 μL), 0.2 M ascorbic acid (20 μL), 0.5 mM methylene blue (4 μL), 10 mg/mL catalase (2 μL), H2O (128 μL), and rhIDO (2 μL)). The mixture was pipetted and preincubated at 37° C. for 10 minutes. Then, the whole amount was brought to 200 μL by the addition of 20 μL of a 2 mM aqueous tryptophan solution, and the mixture was pipetted again and reacted at 37° C. for 120 minutes. After the reaction, the enzymatic reaction was terminated by the addition of 40 μL of a 30% [v/v] aqueous trichloroacetic acid solution to the reaction solution. The mixture was well stirred by pipetting and heated at 50° C. for 15 minutes so that N-formylkynurenine was converted to kynurenine. The reaction solution thus heated was centrifuged (15,000 rpm, 5 min, 24° C.), and 150 μL of the supernatant was transferred to a transparent 96-well flat-bottomed plate, followed by the measurement of absorbance at 490 nm using SpectraMax MSSK (background measurement). After the measurement, a solution of 2% [w/v] p-dimethylbenzaldehyde in acetic acid was added at 150 μL/well and reacted for 5 minutes, followed by the measurement of absorbance at 490 nm again. The rate of kynurenine production was calculated according to the following expression. Rate of kynurenine production (%) for each compound in the case of using rhIDO={(Absorbance at 490 nm in the tryptophan-containing aqueous solution comprising rhIDO and the compound of the present invention−Absorbance of the background)/(Absorbance at 490 nm in the tryptophan-containing aqueous solution without the addition of the compound solution−Absorbance of the background)}×100 Enzyme Assay Protocol Using rhTDO (Recombinant Human TDO)

For test [3], the target named is rhTDO (recombinant human TDO) (Homo sapiens, UniProt P48775). Description: Enzyme assay using rhTDO (rate of kynurenine production). It is filed as biochemical. Particulars: 2 h; final concentration of the compound 10 μM; rate relative to reaction without compound; read-out: rhTDO-mediated kynurenine production. Here is the method:
4 μL of a compound solution was added to 176 μL of a rhTDO reaction solution (0.5 M potassium phosphate buffer (20 μL), 0.2 M ascorbic acid (20 μL), 0.5 mM methylene blue (4 μL), 10 mg/mL catalase (2 μL), H2O (128 μL), and rhTDO (2 μL)). The mixture was pipetted and preincubated at 37° C. for 10 minutes. Then, the whole amount was brought to 200 μL by the addition of 20 μL of a 20 mM aqueous tryptophan solution, and the mixture was pipetted again and reacted at 37° C. for 120 minutes. After the reaction, the enzymatic reaction was terminated by the addition of 40 μL of a 30% [v/v] aqueous trichloroacetic acid solution to the reaction solution. The mixture was well stirred by pipetting and heated at 50° C. for 15 minutes so that N-formylkynurenine was converted to kynurenine. The reaction solution thus heated was centrifuged (15,000 rpm, 5 min, 24° C.), and 150 μL of the supernatant was transferred to a transparent 96-well flat-bottomed plate, followed by the measurement of absorbance at 490 nm using SpectraMax M5 SK (background measurement). After the measurement, a solution of 2% [w/v] p-dimethylbenzaldehyde in acetic acid was added at 150 μL/well and reacted for 5 minutes, followed by the measurement of absorbance at 490 nm again. The rate of kynurenine production was calculated according to the following expression. Rate of kynurenine production (%) for each compound in the case of using rhTDO={(Absorbance at 490 nm in the tryptophan-containing aqueous solution comprising rhTDO and the compound of the present invention−Absorbance of the background)/(Absorbance at 490 nm in the tryptophan-containing aqueous solution without the addition of the compound solution−Absorbance of the background)}×100 IDO Cell-Based Assay Protocol

The target in test [4] is T2, IDO in A431 cells (Homo sapiens, UniProt P14902).
T2 construct: endogenous in cells; host or cells: A431 cells, IFN-γ stimulated
Briefly: IDO cell-based assay, kynurenine production in IFN-γ stimulated A431 cells. To be noted: A-431, 24 h; final concentration of the compound 10 μM; rate relative to culture without compound. The procedure: A431 cells (3.0×10^5 cells/mL) suspended in a culture medium for assay (D-MEM; Wako 040-30095, 5% FBS, 50 units/mL penicillin, 50 μg/mL streptomycin, and 2 mM L-glutamine) were inoculated at 100 μL/well to a transparent 96-well flat-bottomed plate and cultured at 37° C. for 24 hours in 5% CO2. The culture medium was removed from the cells thus cultured. A tryptophan-containing culture medium (culture medium for assay supplemented with 178 μM L-tryptophan) was added at 80 μL/well, and further, a compound solution was added at 10 μL/well. The cells were preincubated for 1 hour. Then, the whole amount was brought to 100 μL/well by the addition of 10 μL/well of IFN-γ diluted into 100 ng/mL with a tryptophan-containing culture medium, and the cells were cultured for 24 hours. After the culture, absorbance was measured at 460 nm using SpectraMax MSSK (Molecular Devices, LLC) (background measurement). After the measurement, a kynurenine quantification reagent (prepared with 7% [v/v] aqueous trichloroacetic acid solution and a solution of 2% [w/v] p-dimethylbenzaldehyde in acetic acid at 2:5 [v/v]) was added at 200 μL/well and reacted for 5 minutes, followed by the measurement of absorbance at 460 nm again. The rate of kynurenine production was calculated according to the following expression. Rate of kynurenine production (%) for each compound in the case of using A431 cells={(Absorbance at 460 nm in the tryptophan-containing culture medium comprising the A431 cells and the solution of the compound of the present invention−Absorbance of the background)/(Absorbance at 460 nm in the tryptophan-containing culture medium without the addition of the compound solution−Absorbance of the background)}×100 TDO Cell-Based Assay Protocol

From patent publication US12209079B2 (GENERAL INCORPORATED ASSOCIATION PHARMA VALLEY PROJECT …, priority 2017, dated 2025) come the findings set out here.

Counter-ions that a name gives are not always drawn.

T2 sequence (P14902 whole entry): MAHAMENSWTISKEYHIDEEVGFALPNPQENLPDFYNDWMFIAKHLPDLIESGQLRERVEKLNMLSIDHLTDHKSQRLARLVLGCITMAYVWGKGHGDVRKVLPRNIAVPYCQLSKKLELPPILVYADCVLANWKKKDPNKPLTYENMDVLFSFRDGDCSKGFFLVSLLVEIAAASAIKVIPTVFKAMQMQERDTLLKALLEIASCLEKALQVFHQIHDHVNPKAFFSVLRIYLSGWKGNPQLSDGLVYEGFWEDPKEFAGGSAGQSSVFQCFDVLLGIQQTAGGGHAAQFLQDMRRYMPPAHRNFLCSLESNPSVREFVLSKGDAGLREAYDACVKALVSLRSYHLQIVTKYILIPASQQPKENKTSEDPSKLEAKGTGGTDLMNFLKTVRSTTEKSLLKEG
Chain of rhIDO (recombinant human IDO) (P14902 whole entry): as above
Chain of rhTDO (recombinant human TDO) (P48775 whole entry): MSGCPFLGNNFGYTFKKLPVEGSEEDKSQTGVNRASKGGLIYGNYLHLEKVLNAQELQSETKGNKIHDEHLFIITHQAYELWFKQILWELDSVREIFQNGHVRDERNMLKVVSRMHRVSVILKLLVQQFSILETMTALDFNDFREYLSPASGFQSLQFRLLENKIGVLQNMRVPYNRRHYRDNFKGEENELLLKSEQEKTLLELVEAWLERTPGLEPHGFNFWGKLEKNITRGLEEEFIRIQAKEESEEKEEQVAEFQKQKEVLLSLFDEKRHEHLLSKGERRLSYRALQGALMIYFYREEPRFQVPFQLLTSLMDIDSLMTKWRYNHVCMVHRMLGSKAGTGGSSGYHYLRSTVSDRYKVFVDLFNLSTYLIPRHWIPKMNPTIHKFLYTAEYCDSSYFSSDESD
T1 sequence (P48775 whole entry): as above

With `N=C(N)SCc1ccc2ccccc2c1CSC(=N)N` [Compound 3, naphthalene-1,2-diylbis(methylene) dicarbamimidothioate dihydrobromide], the remaining activity at 10 µM is 78% in test [1], 6% in test [2], 30% in test [3] and 7% in test [4].
Consider `CC(C)(C)c1ccc(CSC(=N)N)c(CSC(=N)N)c1` [Compound 4, (4-(tert-butyl)-1,2-phenylene)bis(methylene) dicarbamimidothioate dihydrobromide], for which the remaining activity at 10 µM in test [1] is 102%; in test [2] it was 64%; in test [3], 56%; in test [4], 68%.
For `N=C(N)SCc1nc2ccccc2nc1CSC(=N)N` [Compound 5, quinoxaline-2,3-dilylbis(methylene) dicarbamimidothioate dihydrobromide], in that order: 113%, 69%, 84% and 85%.
In the case of `N=C(N)SCc1c(F)c(F)c(F)c(F)c1CSC(=N)N` [Compound 6, (perfluoro-1,2-phenylene)bis(methylene) dicarbamimidothioate dihydrobromide], the remaining activity at 10 µM in test [1] amounted to 74%; in test [2], 15%; in test [3], 9%; in test [4], 75%.
As to `C/N=C(\NC)SCc1ccccc1CS/C(=N/C)NC` [Compound 8, 1,2-phenylenebis(methylene) (E,E)-bis(N,N′-dimethylcarbamimidothioate) dihydrodhloride], the remaining activity at 10 µM came out at 20% in test [1], 77% in test [2], 52% in test [3] and 10% in test [4].
With `c1ccc(CCN2CN=C(SCc3ccccc3CSC3=NCN(CCc4ccccc4)CN3)NC2)cc1` [Compound 9, 1,2-bis(((5-phenethyl-1,4,5,6-tetrahydro-1,3,5-triazin-2-yl)thio)methyl)benzene], the remaining activity at 10 µM in test [1] is 0%; in test [2], 30%; in test [3] it was 36%; in test [4] it was 10%.
Turning to `CNC(=N)SCc1ccccc1CSC(=N)NC` [Compound 11, 1,2-phenylenebis(methylene) bis(methylcarbamimidothioate) dihydrochloride], the remaining activity at 10 µM in test [1] stood at 19%; in test [2], 51%; in test [3], 58%; in test [4], 6%.
On the same counts, the results for `Cc1ccc(CSC(=N)N)c(CSC(=N)N)c1` [Compound 12, (4-methyl-1,2-phenylene)bis(methylene) dicarbamimidothioate dihydrobromide] are 0%, 20%, 10% and 13%.
For the compound `N=C(N)SCc1cccc(F)c1CSC(=N)N` [Compound 13, (3-fluoro-1,2-phenylene)bis(methylene) dicarbamimidothioate dihydrobromide], the remaining activity at 10 µM in test [1] came to 42%; in test [2] it was 15%; in test [3], 9%; in test [4], 32%.
On the same counts, the results for `c1ccc(CN2CN=C(SCc3ccccc3CSC3=NCN(Cc4ccccc4)CN3)NC2)cc1` [Compound 14, 1,2-bis(((5-benzyl-1,4,5,6-tetrahydro-1,3,5-triazin-2-yl)thio)methyl)benzene] are 4%, 52%, 31% and 7%.
Regarding `c1cnc(SCc2ccccc2CSc2ncccn2)nc1` [Compound 16, 1,2-bis((pyrimidin-2-ylthio)methyl)benzene], the remaining activity at 10 µM is 74% in test [1], 66% in test [2], 68% in test [3] and 76% in test [4].
As to `Clc1ccc(CCN2CN=C(SCc3ccccc3CSC3=NCN(CCc4ccc(Cl)cc4)CN3)NC2)cc1` [Compound 17, 1,2-bis(((5-(4-chlorophenethyl)-1,4,5,6-tetrahydro-1,3,5-triazin-2-yl)thio)methyl)benzene], the remaining activity at 10 µM is 0% in test [1], 30% in test [2], 25% in test [3] and 8% in test [4].
